Columns and labels:
Format in all cases: functional, cell-based
Details in all cases: Mus musculus
S49 [1] = experiment: Effective concentration for growth inhibition of S49 cells in culture in the presence of 10 uM of dUrd
S49 [2] = experiment: Effective concentration to inhibit growth of S49 cells in culture
L1210 [3] = experiment: Effective concentration for growth inhibition of L1210 cells in culture in the presence of 10 uM of dUrd
L1210 [4] = experiment: Effective concentration for growth inhibition of L1210 cells in culture in the presence of 10 uM of dThd
L1210 [5] = experiment: Effective concentration to inhibit growth of L1210 cells in culture

EC50 (L1210 [3]): 120 nM
EC50 (L1210 [4]): > 3000 nM
EC50 (L1210 [5]): 33 nM
SMILES: O=c1[nH]c(=O)n([C@H]2C[C@H](O)[C@@H](CO)O2)cc1[N+](=O)[O-]
EC50 (S49 [1]): 60 nM
EC50 (S49 [2]): 30 nM

— ChEMBL document CHEMBL1122177, “Mechanism of action of 5-nitro-2'-deoxyuridine” (J Med Chem, 1982)
